The values below are quoted from earlier work in US20090238905A1, “INFLAMMATION REDUCING ACTION OF SYNERGISTIC MIXTURES OF BISABOLOL AND GINGER EXTRACTS” (SYMRISE, Inc., priority 2008, published 2009).

With `CC(C)=CCC[C@](C)(O)C1CC=C(C)CC1` (stereo partly shown) [Bisabolol, bisabolol], the PGE2 inhibition entry with PGE2 is reported as “not as a PGE2 inhibitor”. Further, the IL-1α inhibition result with IL-1α was “very effective”. For the same compound, the LTB4 inhibition result in the data set with LTB4 was “very effective”.

In the case of `CCCCC[C@H](O)CC(=O)CCc1ccc(O)c(OC)c1` [Gingerol], the IL-1α inhibition entry with IL-1α is recorded as “did not have an effect”. In the data set on TNF-α, the “inhibition of activation of TNF-α” value was “inhibit activation of TNF-α”. The “inhibition of COX-2 expression” value in the data set with COX-2 was “inhibit”. Also, the “inhibition of PGE2 production” value with HL-60 cells is listed as “inhibit PGE2 production”.
